The nature of data set [1]: In vitro stability of MRS2365 in mouse plasma. The settings on record: heparin-treated mouse plasma, 0-90 seconds, even at 0 and 5 seconds. Type of data set: in vitro ADME. On the procedure: Whole blood was obtained from male CD-1 mice and human volunteers at Seventh Wave Laboratories (Maryland Heights, MO). Plasma and blood samples were prepared using either EDTA (1 mM) or lithium heparin as anticoagulants.
Plasma Stability Determination: MRS2365, enalapril and procaine were solubilized in phosphate-buffered saline, pH 7.4. […] Stability incubations were initiated with the addition of MRS2365 (1 μM final concentration). Initial assessments of stability in EDTA-generated plasma utilized incubation timepoints of 0, 10, 30, 60, 120 and 240 minutes (FIGS. 3 and 4). Subsequent studies comparing EDTA- and heparin-generated plasma utilized incubation timepoints of 0, 1, 2.5, 5, 7.5, 10 and 30 minutes (FIG. 7). Additional plasma stability incubations comparing EDTA- and heparin-generated plasma were performed using timepoints of 0, 5, 10, 20, 30, 45, 60 and 90 seconds (FIG. 8). For metabolite scouting analyses, MRS2365 was incubated in heparinized human plasma at a concentration of 100 μM for 10 or 30 minutes (FIG. 9). In all studies, plasma was immediately placed in microtainer tubes, frozen on dry ice and stored at −80° C. until analysis.
The following table outlines the LC and MS/MS conditions employed (Table 11).
The calibration range for MRS2365 plasma and blood concentration standard curves was 5-5000 ng/mL. […]

A short description of data set [2]: Previous in vivo pharmacokinetic assessments of MRS2365 in mice. The settings on record: heparin as blood anticoagulant for plasma preparation, initial assessments.
Data set [3] can be described thus: Pharmacokinetics of MRS4322 following intraperitoneal administration to mice (plasma and brain concentrations). The settings on record: MRS4322 […] i.p.; for Plasma Concentration Mean / Plasma Concentration by Subject: BLQ = below 2.40 ng/mL; for Brain Concentration Mean / Brain Concentration by Subject: BLQ = below 9.64 ng/g; for Plasma Concentration by Subject / Brain Concentration by Subject: subjects A-C. Format: in vivo. On the procedure: Animals: Female C576BL/6J mice weighing approximately 0.02 kg were used for this study, supplied by the University of Texas Health Sciences Center (San Antonio, TX). All studies were conducted under approved University of Texas Health Sciences Center IACUC protocols.
Drug Administration: MRS4322 was solubilized in DMSO and then diluted in saline to prepare dosing solution. Final dosing solution concentration of MRS4322 was 100 μM. A 100 μL volume of dosing solution was administered intraperitoneally to each mouse per 20 gram body weight; MRS4322 was administered intraperitoneally at 0.16 mg/kg or 0.5 μmol/kg. Three mice were administered MRS4322 for each sampling timepoint.
Tissue Sampling: Blood and brain samples were obtained at 0, 0.083, 0.25, 0.5, 1, 2 and 8 hours post-dose. At each timepoint, mice (3/timepoint) were euthanized in a […] chamber. Whole blood was obtained by cardiac puncture into Microtainer tubes containing heparin and immediately centrifuged for preparation of plasma; plasma was stored at −80° C. At each timepoint, whole brain samples were obtained by decapitation, rinsed in ice-cold phosphate-buffered saline and weighed. Brain samples were then immediately flash-frozen in liquid nitrogen and stored at −80° C.
The following table outlines the LC and MS/MS conditions employed:
The calibration range for the MRS4322 plasma concentration standard curve was 2.42-242 ng/mL. The calibration range for MRS4322 brain concentrations was 2.41-233 ng/mL.
For bioanalysis of brain concentrations of MRS4322, brain samples were homogenized in ice-cold phosphate-buffered saline in a 4× dilution. Aliquots of the resulting diluted brain homogenate were treated with acetonitrile and analyzed by LC-MS/MS. Because of the 4× homogenate dilution, the calibration range of the MRS4322 brain standard curve was translated to 9.64-932 ng/gm. In several samples, MRS4322 was detectable but fell below the brain LLOQ of 9.64 ng/gm but were above background; in these cases the final reported brain concentration was extrapolated based on MS peak heights.

Regarding `CSc1nc(N)c2ncn([C@H]3[C@H](O)[C@H](O)[C@]4(COP(=O)(O)OP(=O)(O)O)C[C@H]34)c2n1` [MRS2365], in data set [1], the “MRS2365 concentrations during incubation” value is given as “extremely low”. In addition, the in vivo clearance result in data set [2] is on record as “rapidly cleared at a rate approximating cardiac output”.
Regarding `CSc1nc(N)c2ncn([C@H]3[C@H](O)[C@H](O)[C@]4(CO)C[C@H]34)c2n1` [MRS4322], in data set [3] (0 h), the “Plasma Concentration Mean” value was “BLQ”, the “Brain Concentration Mean” value is reported as “BLQ”, the “Plasma Concentration by Subject” value was “BLQ” and the “Brain Concentration by Subject” value is on record as “BLQ”. Further, in data set [3] (1 h), the “Brain Concentration Mean” value is reported as “BLQ” and the “Brain Concentration by Subject” value is given as “BLQ”. Further, in data set [3] (2 h), the “Brain Concentration Mean” value was “BLQ” and the “Brain Concentration by Subject” value is reported as “BLQ”. In data set [3] (8 h), the “Plasma Concentration Mean” value was “BLQ”, the “Brain Concentration Mean” value is given as “BLQ”, the “Plasma Concentration by Subject” value was “BLQ” and the “Brain Concentration by Subject” value is “BLQ”.

(Values after patent publication US12390483B2, “Compounds and methods for treating neurological and cardiovascular conditions” (Astrocyte Pharmaceuticals, Inc., priority 2016, dated 2025).)
